Results on three compounds are retold here after patent US11026925B2, “Angiotensin II receptor antagonist metabolite and NEP inhibitor composite and preparation method thereof” (SHENZHEN SALUBRIS PHARMACEUTICALS CO. LTD, priority 2016, dated 2021).

Structures can show the parent of a compound that is named as a salt.

For data set [1], the system named is animal model with heart failure (ligation of left anterior descending coronary artery). In words: anti-heart failure activity (long term, chronic) in animal model (rat). Type of data set: in vivo.
For data set [2] the test system is unchanged. The data set is described as follows: anti-heart failure activity (short term, acute) in animal model (rat). To be noted: for mAP / mLVP: 7 days before and 3 days after ligation, measured Day 11; for improvement effect on mAP and mLVP / effect on lowering blood pressure compared with untreated animal group: short-term administration, rat. Type of data set: in vivo. The method, then: The animal model with heart failure using ligation of left anterior descending coronary artery was prepared, the therapeutic drug to the modeling animal was administrated by pre-gavage, once per day for 7 continuous days, and was continuously administrated for three days after successful modeling.
SD male rats aged 6-week old;
Pre-test preparation: All animals were divided into 5 groups by randomized blocks, 6 rats in each group, and the animals were acclimated for 3 days before test treatment; Experimental process: Therapeutic drug was given to the test animals by pre-gavage, once per day for 7 continuous days. Operation was conducted on Day 8, the animals were anesthetized, trachea was connected to a respirator, electrocardiograph (ECG) was connected for real-time recording, thoracic cavity was opened between the 3rd and 4th ribs, left anterior descending coronary artery was ligated, ST segment elevation of ECG indicated successful ligation, the thoracic cavity was closed, and the skin was sutured;
The animals were anesthetized on Day 11, ECG was measured, and then arterial pressure and left ventricular pressure were measured by carotid artery intubation.

For data set [3] the following is noted: singly used as medication; cited from earlier work.
Data set [4] can be described thus: Flowability (angle of repose, bulk density). The data set is classed as physicochemical.
Data set [5] can be described thus: Hygroscopicity (plain sample) at RH 75% and RH 85%. The data set is classed as physicochemical.
Data set [6] deals with patients with heart failure. To be noted: compared with the enalapril treatment group; cited from earlier work.
The mark [7] stands for this setting: 30 mg/kg gavage once per day for 4 weeks.
Setting [8] is: samples crushed to particle size distribution similar to LCZ696.
Setting [9] is: 68 mg/kg gavage once per day for 4 weeks.

Consider `CCOC(=O)[C@H](C)C[C@@H](Cc1ccc(-c2ccccc2)cc1)NC(=O)CCC(=O)O` [AHU377 calcium salt, AHU377 (Sacubitril, CAS: 149709-62-6)], for which, in data set [1] (setting [7]), the Ejection fraction is on record as 53.3%, the Heart rate stood at 378.9 beats/min, the Myocardial fibrosis is 54.88% and the “Thickness of heart wall” value is reported as 0.137 cm. In data set [2] (30 mg/kg gavage once per day), this compound had a mAP of 104 mmHg and a mLVP of 63 mmHg. For the same compound, the “improvement effect on mAP and mLVP / effect on lowering blood pressure compared with untreated animal group” value in data set [2] is recorded as “not significant”.
`CCCCc1nc(Cl)c(C(=O)O)n1Cc1ccc(-c2ccccc2-c2nnn[nH]2)cc1` [EXP3174]: in data set [1] (setting [7]), the Ejection fraction is 47.9%, the Heart rate was 427.8 beats/min, the Myocardial fibrosis was 62.89% and the “Thickness of heart wall” value is reported as 0.136 cm. In addition, the bioavailability entry in data set [3] was “low bioavailability”. In data set [2] (30 mg/kg gavage once per day), this compound came in with a mAP of 106 mmHg and a mLVP of 61 mmHg. Further, the “improvement effect on mAP and mLVP / effect on lowering blood pressure compared with untreated animal group” value in data set [2] was “not significant”.
As to `CCCCC(=O)N(Cc1ccc(-c2ccccc2-c2nnn[n-]2)cc1)[C@H](C(=O)[O-])C(C)C.CCOC(=O)[C@H](C)C[C@@H](Cc1ccc(-c2ccccc2)cc1)NC(=O)CCC(=O)[O-].O.[Na+].[Na+].[Na+]` [LCZ696], in data set [4] (powder property test), the “electrostatic phenomenon of powder” value is “electrostatic phenomenon” and the “flowability (in words)” value is “hardly flowable”. In data set [4] (setting [8]), the Angle of repose was found to be 57.35 ° and the Bulk density was found to be 0.527 g/mL. In data set [1] (setting [9]), this compound came in with an Ejection fraction of 70.6%, a Heart rate of 412.9 beats/min and a Myocardial fibrosis of 11.51%. Also, in data set [2] (68 mg/kg gavage once per day), the mAP is given as 78 mmHg and the mLVP amounted to 44 mmHg. For the same compound, the “state of test samples at the end of the hygroscopicity experiment” value in data set [5] (RH 75% and RH 85%, end of experiment) is recorded as “completely deliquescent”. In addition, the “water content, RH 75% Day 0” value in data set [5] (RH 75%, Day 0, plain sample) is reported as 4.9%. Besides, the “water content, RH 85% Day 0” value in data set [5] (RH 85%, Day 0, plain sample) is given as 4.9%. Moreover, the “reduction of hospitalization rate of patients with heart failure” value in data set [6] is given as 21%.
